{"source": "patent US9221900B2", "about": "“Methods for identifying safe and functional humanized antibodies” (AC IMMUNE S.A., priority 2010, dated 2015)", "key": {"[1]": {"tested_on": "mixed cortical cells from P1 rats", "test": "Aβ1-42 oligomer cytotoxicity assay, MTT readout", "assay_type": "cell-based, rat", "procedure": "FIG. 2 provides graphs and immunocytochemical images corresponding to the experiments described in Example 6.3. […] An MTT assay was used to determine cell viability as described in the Methods section. The means (±SEM) of five independent experiments are shown. *P<0.05, **P<0.01. […] Neurotoxicity following extended Aβ1-42 oligomer treatment was tested by morphological analyses (C).\nA non-specific IgG monoclonal antibody was used as a control in all experiments.\nRat primary cortical cultures were prepared from Sprague-Dawley rats (Charles River Laboratories L'Arbresle, France) at post-natal day 1, as described by Meberg and Miller (Meberg and Miller, 2003). Cerebellum and meninges were removed, and cortices were cut into small pieces and dissociated with enzymatic disruption at 37° C. in dissociation buffer (papaine, CaCl2, EDTA, and HEPES; all from Invitrogen, Carlsbad, Calif.). DNase (Invitrogen) was added for 10 min. Following dissociation, dispersed cortical neurons were plated onto poly-L-lysine (0.01%; mol. wt 150,000-300,000; Sigma) coated 6-well, 24-well, or 96-well tissue culture plates. For immunocytochemistry, cells were grown on coated glass coverslips, into 24-well plates. Cells were maintained in Neurobasal media (Invitrogen) without phenol-red, with the addition of L-glutamine (2 mM; Sigma), B27 supplement (Invitrogen), and penicillin/streptomycin (Sigma) in a humidified incubator at 37° C. and 5% CO2. Following 1 h and 30 min in culture, the media was replaced with astrocyte-conditioned medium. After a further 4 days in culture, cell proliferation was blocked by treatment with cytosine arabinoside (Ara-C) at 2.5 μM (Invitrogen). Under these culture conditions, 20% of cells were identified as neurons by NeuN/DAPI staining (not shown). Experiments using mixed cortical cultures were generally performed at days-in-vitro (“DIV”) 6 unless stated otherwise. Enriched microglia prepared from cortex and hippocampus were harvested as described for cortical cultures above. Cortex and hippocampus were put in DMEM containing high glucose and homogenized by pipetting with a 10 mL pipette and then with a syringe. The homogenate was centrifuged for 3 min at 1,000×g, and then resuspended in pre-warmed DMEM containing high glucose containing 10% FCS and penicillin/streptomycin (microglia media). The cell suspension was next transferred to a T75 tissue-culture flask and kept in a humidified incubator at 37° C. and 5% CO2 for 1 week. The flask was shaken to separate microglia from adherent cells, and collected and washed in DMEM. The resulting cells were resuspended in 1 mL microglia media, counted, and plated at 5×10^4 cells/well. To verify microglial enrichment, cells were stained with the astroglial and microglial markers GFAP and Iba1, respectively. Greater than 60% of cells stained positive for Iba1, with no cells staining for both GFAP and Iba1. Pure microglia were prepared from post-natal day 3 CX3CR1-GFP mice (Jackson Laboratories). Cortex and hippocampus were dissected and triturated in DMEM containing high glucose using a 10 mL pipette, and then with an 18 gauge needle. The homogenate was centrifuged for 3 min at 1,000 g, and then resuspended in pre-warmed DMEM containing high glucose, 10% FBS and penicillin/streptomycin (microglia media). The cell suspension was next transferred to a T75 tissue-culture flask and kept in a humidified incubator at 37° C. and 5% CO2 for 7-10 d. Microglia were isolated by shaking, collected and washed in DMEM. The resulting cells were resuspended in 1 mL microglia media, counted, and plated on tissue culture treated glass chamber slides at 5×10^4 cells/well for use in experiments.\nThe cytotoxicity of Aβ1-42 oligomers was tested on mixed cortical cultures at DIV 5. All antibodies, at a final concentration of 100 μg/mL, were co-incubated with Aβ1-42 oligomers for 30 min in serum-free cell culture medium at 37° C. before treatment of cells. […]"}, "FcγRIIIa-V158": {"target": "T1, FcγRIIIa-V158 (Homo sapiens, UniProt P08637, F176V)", "T1 construct": "fusion proteins containing the extracellular domain of the receptor γ-chain", "T1 sequence (P08637 17-208 F176V)": "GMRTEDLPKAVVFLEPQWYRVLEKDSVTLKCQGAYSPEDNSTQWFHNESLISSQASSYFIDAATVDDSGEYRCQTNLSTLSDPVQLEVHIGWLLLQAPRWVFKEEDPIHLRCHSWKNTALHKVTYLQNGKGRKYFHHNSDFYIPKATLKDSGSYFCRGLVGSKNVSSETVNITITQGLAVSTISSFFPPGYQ", "test": "FcγR binding ELISA, FcγRIIIa-V158", "conditions": "cross-linked IgG mAb", "procedure": "The ability of these different monoclonal antibody backbones to internalize Aβ1-42 oligomers into microglia was then compared using confocal imaging on Aβ1-42 oligomer treated primary cortical microglia. […] To verify that microglia are indeed the cells taking up Aβ1-42 complexed to monoclonal antibodies, the study was repeated using HiLyte Fluor-488 tagged Aβ1-42 and co-stained for the microglial marker Iba1.\n(§1) The binding of test antibodies to a panel of human Fcγ receptors (FcγRs) was measured using enzyme-linked immunosorbent assay (ELISA). Human FcγRs (Genentech, Inc., CA) are fusion proteins containing the extracellular domain of the receptor γ-chain with a Gly/6xHis/glutathione S transferase (GST) polypeptide tag at the C terminus. A monoclonal antibody with human IgG1 framework was used as the positive control (IgG1 control) in this experiment. Plates were coated with a mouse monoclonal anti GST antibody (Genentech, Inc.) in a 0.05 M sodium carbonate buffer (pH 9.6) overnight at 4° C. After blocking with an assay buffer containing phosphate buffered saline (PBS), 0.5% BSA, and 0.05% Tween-20, the plates were incubated with FcγRs at room temperature for 1 h. Human FcγRs were immobilized to the plate via interaction with the anti-GST coating. […] Diluted samples were applied as monomeric forms for the high affinity receptor (FcγRIa), or multimeric forms for the low affinity receptors (FcγRIIa, FcγRIIb, and FcγRIIIa). […] The antibodies bound to the FcγRs were detected with horseradish peroxidase (HRP)-conjugated F(ab′)2 fragment of goat anti human F(ab′)2 (Jackson ImmunoResearch Laboratories; West Grove, Pa.). […] The reaction was terminated with 1 M H3PO4, and absorbance at 450 nm with reference at 650 nm was measured on a plate reader (Molecular Devices, Sunnyvale, Calif.). Binding curves were generated by plotting the mean absorbance values from duplicates of sample dilutions against the respective sample absorbance."}, "microglia": {"tested_on": "microglia", "test": "Confocal imaging of microglial uptake of Aβ1-42 oligomers", "assay_type": "cell-based, rat", "conditions": "primary cortical microglia", "protocol": "Aβ1-42 oligomers are shown in red, and blue is DAPI staining of DNA to show the microglia itself (A). An apical-to-distal slice was obtained from a three-dimensional image rendered from Z-stacks. Confocal imaging was performed on mixed cortical cells labeled for Aβ (red) and stained with DAPI (blue) as described in the Example Section under Materials and Methods. Microglia were identified and scanned for the maximum fluorescence intensity through a series of confocal stacks representing intracellular locations (B), and the total area of fluorescent signal above a minimum threshold was quantified (C). Each mark on the graph represents the total area of Aβ stained within a single cell. A minimum of 20 cells were analyzed for each treatment condition. Data were compared using one-way ANOVA followed by Tukey post-hoc multiple comparison. Means (±SEM) are shown. […] Red is Iba1 staining, green is HyLite Fluor-488-labeled Aβ1 42, and blue is DAPI staining. […] Statistical analysis was done using one-way ANOVA followed by Tukey post-hoc multiple comparison.\nCells were grown on a glass coverslips. Following treatment, cells were quickly washed with PBS and then fixed with 4% paraformaldehyde for 20 min. After thorough washes, cells were immersed in 100% methanol for 10 min at −20° C. They were then washed again and incubated in a blocking solution, PBS containing 10% normal goat serum for 1 h at room temperature. After an overnight incubation with the primary antibody, cells were washed and incubated for 2 h with the secondary antibody, then washed and mounted on glass slides using ProLong Gold antifade reagent (Invitrogen). Epifluorescence and confocal images were acquired on a LSM 700 inverted microscope from Zeiss, using a 63× lens. Fluorescence intensity was measured in cell bodies delineated by saturated epifluorescence pictures. Z-stacks were rendered into a three-dimensional image using ImageJ 1.42 (National Institutes of Health, freeware) from which an apical to distal slice containing the labeled proteins was obtained. Cells treated with HyLite Fluor-488-tagged Aβ1-42 were treated in the same way except no primary or secondary antibodies were used to label for Aβ1-42."}, "[2]": {"tested_on": "human Fcγ receptors (FcγRIa, FcγRIIa, FcγRIIb, FcγRIIIa)", "test": "FcγR binding ELISA, panel of human Fcγ receptors", "conditions": "cross-linked antibody", "procedure": "FIG. 10 provides graphs and immunocytochemical images corresponding to the experiments described in Example 6.5. […] These findings are consistent with published data for human IgG4 antibodies (Gessner et al., 1998) and IgG1 antibodies carrying the D265A mutation (Shields et al., 2001).\nas §1, with “FcγRIIIa). The multimeric forms of test antibodies were generated by cross linking F(ab′)2 fragment of goat anti human κ-chain (MP Biomedicals, Solon, Ohio), with test monoclonal antibody at an approximate molar ratio of 3:1. The plates were incubated with FcγRs at room temperature for 2 h.” for “FcγRIIIa).”"}}}
{"substance": "MABT-IgG1-D265A: same antigen binding sequences as MABT on human IgG1 backbone carrying a D265A mutation that dramatically reduces FcγR-binding", "values": [{"measurement": "antibody-mediated increase in MTT signal under p38MAPK inhibition", "setting": "[1]; 10 μM Aβ1-42 oligomers, 100 μg/ml antibody, 1 μM SB239063, 24 h", "value": "no effect"}, {"measurement": "reversal of Aβ1-42 oligomer-mediated toxicity", "setting": "[1]; mixed primary cortical cultures, different IgG backbones", "value": "only a non-significant trend towards reversal"}, {"measurement": "binding to FcγRIIIa-V158, hierarchy", "setting": "FcγRIIIa-V158", "value": "MABT-IgG>MABT>MABT-IgG1-D265A"}, {"measurement": "Aβ1-42 oligomer internalization into microglia, rank order", "setting": "microglia", "value": "MABT-IgG1>MABT>MABT-IgG1-D265A"}, {"measurement": "binding to FcγRs", "setting": "[2]", "value": "substantially reduced binding to all the FcγRs"}]}
